Laboratory results from US5338868A, “Process for preparing alpha-amino-phenylacetic acid-trifluoromethane sulfonic acid mixed anhydrides” (Chinoin Gyogyszer- es Vegyeszeti Termekek Gyara Rt., priority 1989, dated 1994).

Experiment: Quality of the Dane salt during storage for 30 days
Format: physicochemical

CCOC(=O)C=C(C)N[C@@H](C(=O)O)c1ccc(O)cc1 [Example 9]
quality during storage (room temperature, air): does not change

CCOC(=O)C=C(C)N[C@@H](C(=O)[O-])c1ccccc1.[Na+] [Example 15, sodium-D-N-(2-ethoxycarbonyl-1-methyl-vinyl)-α-amino-phenyl-acetate]
quality after storage (stored at room temperature): remains unchanged
